{"source": "ChEMBL document CHEMBL1201862", "about": "“PubChem BioAssay data set” (2004)", "key": {"[1]": {"molecular_target": "T1, Voltage-gated N-type calcium channel alpha-1B subunit/Amyloid beta A4 precursor protein-binding family A member 1 (Homo sapiens, UniProt Q00975+Q02410)", "T1 sequence (Q00975 whole entry)": "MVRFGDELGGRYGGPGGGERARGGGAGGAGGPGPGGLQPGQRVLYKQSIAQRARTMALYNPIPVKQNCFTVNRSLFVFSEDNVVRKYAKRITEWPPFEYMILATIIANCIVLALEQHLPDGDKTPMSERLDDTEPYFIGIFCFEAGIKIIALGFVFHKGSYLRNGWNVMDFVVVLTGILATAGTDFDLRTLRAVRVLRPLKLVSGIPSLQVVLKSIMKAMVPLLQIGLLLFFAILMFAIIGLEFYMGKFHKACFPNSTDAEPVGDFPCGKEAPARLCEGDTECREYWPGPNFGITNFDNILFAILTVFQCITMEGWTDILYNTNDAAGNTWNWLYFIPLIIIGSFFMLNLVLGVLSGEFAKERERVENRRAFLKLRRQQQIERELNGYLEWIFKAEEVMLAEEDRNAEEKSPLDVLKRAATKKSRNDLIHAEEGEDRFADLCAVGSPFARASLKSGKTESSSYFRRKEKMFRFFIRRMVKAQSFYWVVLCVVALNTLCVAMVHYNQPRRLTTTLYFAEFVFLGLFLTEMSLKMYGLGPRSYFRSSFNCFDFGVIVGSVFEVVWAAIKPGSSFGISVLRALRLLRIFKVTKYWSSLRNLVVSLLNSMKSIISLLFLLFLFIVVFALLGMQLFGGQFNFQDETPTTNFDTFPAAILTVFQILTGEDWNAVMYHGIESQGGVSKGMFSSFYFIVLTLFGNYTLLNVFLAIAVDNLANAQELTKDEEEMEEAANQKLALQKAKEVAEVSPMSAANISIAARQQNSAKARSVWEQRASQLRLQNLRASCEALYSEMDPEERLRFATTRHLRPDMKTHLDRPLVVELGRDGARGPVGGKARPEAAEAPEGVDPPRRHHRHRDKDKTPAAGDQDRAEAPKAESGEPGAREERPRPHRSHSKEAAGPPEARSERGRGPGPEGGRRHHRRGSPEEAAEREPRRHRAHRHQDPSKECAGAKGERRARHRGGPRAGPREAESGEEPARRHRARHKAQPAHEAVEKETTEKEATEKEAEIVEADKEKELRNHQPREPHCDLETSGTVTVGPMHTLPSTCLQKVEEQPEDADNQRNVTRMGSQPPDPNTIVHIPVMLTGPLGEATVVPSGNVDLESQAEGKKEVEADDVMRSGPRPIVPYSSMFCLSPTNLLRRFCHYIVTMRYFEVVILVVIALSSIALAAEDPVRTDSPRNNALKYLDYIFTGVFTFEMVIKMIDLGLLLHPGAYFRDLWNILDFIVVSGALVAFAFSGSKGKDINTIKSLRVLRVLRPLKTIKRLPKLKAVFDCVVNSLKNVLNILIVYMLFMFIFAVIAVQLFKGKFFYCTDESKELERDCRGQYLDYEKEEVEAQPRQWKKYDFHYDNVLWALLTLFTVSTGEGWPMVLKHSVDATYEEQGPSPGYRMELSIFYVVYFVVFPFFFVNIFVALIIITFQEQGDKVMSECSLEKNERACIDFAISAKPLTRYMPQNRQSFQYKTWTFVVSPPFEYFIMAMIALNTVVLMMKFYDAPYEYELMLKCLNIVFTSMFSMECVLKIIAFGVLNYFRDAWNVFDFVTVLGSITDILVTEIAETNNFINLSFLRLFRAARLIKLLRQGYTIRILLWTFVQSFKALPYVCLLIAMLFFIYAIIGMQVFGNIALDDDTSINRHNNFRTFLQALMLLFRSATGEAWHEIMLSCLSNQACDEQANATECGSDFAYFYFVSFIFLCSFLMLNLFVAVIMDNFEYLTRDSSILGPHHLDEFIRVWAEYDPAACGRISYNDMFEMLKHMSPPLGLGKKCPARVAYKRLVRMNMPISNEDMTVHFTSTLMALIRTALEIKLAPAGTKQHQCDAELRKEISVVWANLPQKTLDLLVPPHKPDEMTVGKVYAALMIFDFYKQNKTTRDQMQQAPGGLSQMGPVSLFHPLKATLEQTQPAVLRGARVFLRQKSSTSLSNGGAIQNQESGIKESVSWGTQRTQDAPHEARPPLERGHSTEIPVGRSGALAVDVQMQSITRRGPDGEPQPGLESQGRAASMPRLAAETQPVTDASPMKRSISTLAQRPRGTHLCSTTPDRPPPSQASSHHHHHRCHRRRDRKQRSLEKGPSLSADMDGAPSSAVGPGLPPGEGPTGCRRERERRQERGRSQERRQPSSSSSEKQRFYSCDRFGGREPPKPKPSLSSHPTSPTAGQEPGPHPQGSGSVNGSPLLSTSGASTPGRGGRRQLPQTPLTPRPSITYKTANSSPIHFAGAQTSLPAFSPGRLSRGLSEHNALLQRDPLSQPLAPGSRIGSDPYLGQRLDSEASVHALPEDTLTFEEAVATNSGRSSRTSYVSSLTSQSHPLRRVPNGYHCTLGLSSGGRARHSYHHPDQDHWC", "T1 sequence (Q02410 whole entry)": "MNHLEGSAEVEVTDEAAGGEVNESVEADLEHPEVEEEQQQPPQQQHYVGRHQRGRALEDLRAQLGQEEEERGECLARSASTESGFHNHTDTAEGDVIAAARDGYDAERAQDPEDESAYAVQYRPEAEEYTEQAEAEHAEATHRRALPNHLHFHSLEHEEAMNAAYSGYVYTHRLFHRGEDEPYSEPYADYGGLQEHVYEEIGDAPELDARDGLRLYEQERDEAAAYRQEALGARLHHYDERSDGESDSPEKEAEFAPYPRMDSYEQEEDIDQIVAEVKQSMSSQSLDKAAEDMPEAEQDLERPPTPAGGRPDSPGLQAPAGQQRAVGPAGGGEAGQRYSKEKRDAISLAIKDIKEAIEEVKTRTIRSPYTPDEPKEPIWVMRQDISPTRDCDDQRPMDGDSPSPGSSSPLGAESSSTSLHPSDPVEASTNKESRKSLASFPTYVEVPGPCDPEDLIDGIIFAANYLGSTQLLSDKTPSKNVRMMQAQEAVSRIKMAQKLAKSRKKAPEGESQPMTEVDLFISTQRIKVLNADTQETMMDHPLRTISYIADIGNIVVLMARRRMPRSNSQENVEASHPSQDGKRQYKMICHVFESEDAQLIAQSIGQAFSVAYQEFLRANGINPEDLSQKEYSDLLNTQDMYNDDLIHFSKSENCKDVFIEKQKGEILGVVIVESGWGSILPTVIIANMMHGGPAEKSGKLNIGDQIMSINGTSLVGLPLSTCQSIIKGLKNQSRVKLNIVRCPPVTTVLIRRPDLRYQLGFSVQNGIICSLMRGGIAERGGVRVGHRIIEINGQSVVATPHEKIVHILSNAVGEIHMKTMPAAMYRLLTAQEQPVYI", "assay_type": "protein assay"}, "[2]": {"molecular_target": "T1, Voltage-gated N-type calcium channel alpha-1B subunit/Amyloid beta A4 precursor protein-binding family A member 1", "assay_type": "protein assay", "remark": "listed apart in the source"}, "[3]": {"molecular_target": "T2, SUMO-activating enzyme (Homo sapiens, UniProt Q9UBT2)", "T2 sequence (Q9UBE0 whole entry)": "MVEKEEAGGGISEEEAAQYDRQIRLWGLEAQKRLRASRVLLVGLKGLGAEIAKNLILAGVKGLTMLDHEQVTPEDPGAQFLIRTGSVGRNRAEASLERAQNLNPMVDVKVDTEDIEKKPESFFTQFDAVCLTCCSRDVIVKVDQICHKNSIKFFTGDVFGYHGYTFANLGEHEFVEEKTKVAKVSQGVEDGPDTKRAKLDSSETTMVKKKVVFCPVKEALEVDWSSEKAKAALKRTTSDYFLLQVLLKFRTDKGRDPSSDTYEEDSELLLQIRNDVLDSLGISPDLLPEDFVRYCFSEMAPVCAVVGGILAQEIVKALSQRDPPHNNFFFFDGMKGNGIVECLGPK", "T2 sequence (Q9UBT2 whole entry)": "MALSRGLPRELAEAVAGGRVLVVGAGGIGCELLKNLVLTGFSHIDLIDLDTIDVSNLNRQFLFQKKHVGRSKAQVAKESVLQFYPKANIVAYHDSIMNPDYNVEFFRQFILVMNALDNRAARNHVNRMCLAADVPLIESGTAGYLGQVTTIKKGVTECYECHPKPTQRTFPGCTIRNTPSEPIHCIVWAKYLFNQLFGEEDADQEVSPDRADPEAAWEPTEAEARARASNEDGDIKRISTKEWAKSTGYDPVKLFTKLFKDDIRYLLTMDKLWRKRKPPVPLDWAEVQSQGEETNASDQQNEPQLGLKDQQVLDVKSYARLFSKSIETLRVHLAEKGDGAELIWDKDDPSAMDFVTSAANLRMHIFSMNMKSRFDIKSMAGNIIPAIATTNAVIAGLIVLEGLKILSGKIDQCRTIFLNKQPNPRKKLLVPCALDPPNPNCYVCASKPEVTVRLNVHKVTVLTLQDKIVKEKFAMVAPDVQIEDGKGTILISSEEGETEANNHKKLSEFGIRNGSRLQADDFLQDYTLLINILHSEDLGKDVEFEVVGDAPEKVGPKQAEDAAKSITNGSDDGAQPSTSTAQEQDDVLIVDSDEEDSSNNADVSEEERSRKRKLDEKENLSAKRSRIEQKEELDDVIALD", "experiment": "inhibitors of in vitro SUMOylation cascade, primary screen, biochemical, HTRF, uHTS (AID 2006)", "assay_type": "protein-complex assay"}, "[4]": {"molecular_target": "T2, SUMO-activating enzyme", "experiment": "SUMOylation inhibitor hit validation, confirmation, SUMOylation inhibitor project, biochemical, AlphaScreen (AID 2018)", "assay_type": "functional"}, "[5]": {"molecular_target": "T3, Hexokinase HKDC1 (Homo sapiens, UniProt Q2TB90)", "T3 sequence (Q2TB90 whole entry)": "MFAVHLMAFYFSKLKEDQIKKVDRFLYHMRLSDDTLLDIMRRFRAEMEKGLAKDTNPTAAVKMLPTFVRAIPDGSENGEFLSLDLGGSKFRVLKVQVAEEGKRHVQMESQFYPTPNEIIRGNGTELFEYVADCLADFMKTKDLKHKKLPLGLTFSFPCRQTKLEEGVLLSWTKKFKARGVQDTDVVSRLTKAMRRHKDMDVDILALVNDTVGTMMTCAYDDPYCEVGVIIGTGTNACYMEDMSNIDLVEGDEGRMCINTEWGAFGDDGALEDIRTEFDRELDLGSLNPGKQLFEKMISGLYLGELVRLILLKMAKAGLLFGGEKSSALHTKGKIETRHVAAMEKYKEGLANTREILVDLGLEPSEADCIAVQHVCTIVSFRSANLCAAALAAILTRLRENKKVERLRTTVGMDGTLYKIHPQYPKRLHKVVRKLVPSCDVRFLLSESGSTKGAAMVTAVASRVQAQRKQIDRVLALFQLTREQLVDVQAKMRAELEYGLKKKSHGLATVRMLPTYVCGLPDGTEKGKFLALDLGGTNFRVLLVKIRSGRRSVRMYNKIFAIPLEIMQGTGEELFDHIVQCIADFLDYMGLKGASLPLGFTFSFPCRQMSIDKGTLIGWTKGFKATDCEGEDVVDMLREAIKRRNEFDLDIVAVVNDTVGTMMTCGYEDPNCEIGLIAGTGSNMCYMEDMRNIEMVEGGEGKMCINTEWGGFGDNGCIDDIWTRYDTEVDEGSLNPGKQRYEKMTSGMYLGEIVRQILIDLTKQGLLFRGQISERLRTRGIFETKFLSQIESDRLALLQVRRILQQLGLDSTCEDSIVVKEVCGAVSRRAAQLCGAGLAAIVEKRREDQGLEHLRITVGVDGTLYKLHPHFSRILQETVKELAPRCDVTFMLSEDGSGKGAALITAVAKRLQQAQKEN", "experiment": "HKDC1 hexokinase activators, dose response, biochemical, W721R variant (AID 504730)", "assay_type": "functional"}, "[6]": {"molecular_target": "CAAX prenyl protease 2 (Saccharomyces cerevisiae S288c, UniProt Q03530)", "assay_type": "biochemical"}, "[7]": {"experiment": "mammalian cell cytotoxicity, dose response, cytotoxicity control, plate reader, cherry-pick samples (AID 504397)", "assay_type": "functional, cell-based"}, "[8]": {"experiment": "inhibitors of intracellular T. cruzi replication, confirmation, NIH3T3 host cells, beta-gal luminescence (AID 2044);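 also: luminescent beta-galactosidase reporter signal from transgenic T. cruzi replicating inside host cells; inhibitors lower the luminescence signal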", "assay_type": "functional, cell-based"}, "[9]": {"experiment": "cytotoxicity toward NIH3T3 fibroblasts, dose response, counter-screen, cell-based, ATP luminescence, mouse fibroblasts (AID 2010);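 also: cells exposed to compound for about 90 hours before reading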", "assay_type": "functional"}, "[10]": {"molecular_target": "Exodeoxyribonuclease V (Escherichia coli (strain K12), UniProt P04993+P07648+P08394)", "experiment": "E. coli RecBCD inhibitors, dose response, counter-screen for AddAB inhibitor project, absorbance, V66 E. coli, mutant T4 phage (AID 492957)", "assay_type": "functional, cell-based, Escherichia coli str. K-12 substr. MG1655"}, "[11]": {"experiment": "Counterscreen for AddAB inhibitors: absorbance-based bacterial cell-based high throughput dose response assay for inhibitors of bacterial viability. [Related pubchem assays (depositor defined):AID435030, AID449728, AID449731, AID488942, AID488955, AID488956]", "assay_type": "functional"}, "[12]": {"test_system": "Vero", "experiment": "cells", "assay_type": "functional", "settings": "Chlorocebus sabaeus"}, "[13]": {"molecular_target": "T4, Mucolipin-3 (Homo sapiens, UniProt Q8TDD5)", "T4 sequence (Q8TDD5 whole entry)": "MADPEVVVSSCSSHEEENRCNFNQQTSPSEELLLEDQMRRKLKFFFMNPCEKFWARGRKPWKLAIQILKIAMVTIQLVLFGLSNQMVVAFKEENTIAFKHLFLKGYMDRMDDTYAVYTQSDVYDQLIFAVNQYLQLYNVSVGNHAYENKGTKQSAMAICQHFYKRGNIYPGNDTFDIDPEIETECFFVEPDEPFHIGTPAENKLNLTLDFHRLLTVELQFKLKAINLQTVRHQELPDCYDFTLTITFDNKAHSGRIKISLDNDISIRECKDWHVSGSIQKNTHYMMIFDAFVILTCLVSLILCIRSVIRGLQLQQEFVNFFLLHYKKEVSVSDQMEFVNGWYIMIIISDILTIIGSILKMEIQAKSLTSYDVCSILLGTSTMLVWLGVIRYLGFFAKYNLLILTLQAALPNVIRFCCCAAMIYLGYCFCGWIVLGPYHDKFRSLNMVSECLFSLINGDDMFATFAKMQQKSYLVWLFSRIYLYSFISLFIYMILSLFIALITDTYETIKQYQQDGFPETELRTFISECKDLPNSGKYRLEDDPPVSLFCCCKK", "experiment": "Fluorescence counterscreen assay for […] agonists: dose response cell-based high-throughput screening assay to identify agonists of the transient receptor potential channel ML3 (TRPML3). [Related pubchem assays: 1424, 1448 ]", "assay_type": "functional"}, "[14]": {"molecular_target": "Ion channel NompC (Danio rerio, UniProt Q7T1G6)", "experiment": "Dose response cell-based high-throughput screening assay for agonists of the transient receptor potential channel N1 (TRPN1). [Related pubchem assays (depositor defined):AID1424, AID1448]", "assay_type": "functional"}, "[15]": {"molecular_target": "T5, Kappa-type opioid receptor (Homo sapiens, UniProt P41145)", "T5 sequence (P41145 whole entry)": "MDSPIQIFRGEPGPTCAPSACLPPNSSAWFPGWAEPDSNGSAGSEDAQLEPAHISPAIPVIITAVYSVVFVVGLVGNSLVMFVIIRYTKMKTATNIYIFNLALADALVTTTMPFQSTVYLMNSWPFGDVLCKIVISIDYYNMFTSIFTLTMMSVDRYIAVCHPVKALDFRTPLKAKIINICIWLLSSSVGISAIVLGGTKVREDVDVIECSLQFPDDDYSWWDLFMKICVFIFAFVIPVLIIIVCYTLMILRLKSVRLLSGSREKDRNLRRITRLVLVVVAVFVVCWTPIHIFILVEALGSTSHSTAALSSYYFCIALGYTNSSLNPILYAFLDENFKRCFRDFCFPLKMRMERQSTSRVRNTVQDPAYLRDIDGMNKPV", "experiment": "KOR agonist analogs, arrestin-GFP redistribution, SAR follow-up, imaging, image-based, set 3 (AID 488833)", "assay_type": "functional"}, "[16]": {"molecular_target": "T5, Kappa-type opioid receptor", "experiment": "SAR analysis of small molecule agonists of the kappa opioid receptor via a luminescent beta-arrestin assay - Set 3. [Related pubchem assays (depositor defined):AID1777, AID1785, AID1786, AID1966, AID2133, AID2136, AID2284, AID2500]", "assay_type": "functional"}, "[17]": {"molecular_target": "Mu-type opioid receptor (Homo sapiens, UniProt P35372)", "experiment": "SAR Analysis of Agonists of the MOR Receptor using an Image-Based Assay - Set 3. [Related pubchem assays (depositor defined):AID1777, AID1785, AID1786, AID1966, AID2133, AID2136, AID2284, AID2285, AID2352]", "assay_type": "functional"}, "[18]": {"molecular_target": "Delta-type opioid receptor (Homo sapiens, UniProt P41143)", "sequence (P41143 whole entry)": "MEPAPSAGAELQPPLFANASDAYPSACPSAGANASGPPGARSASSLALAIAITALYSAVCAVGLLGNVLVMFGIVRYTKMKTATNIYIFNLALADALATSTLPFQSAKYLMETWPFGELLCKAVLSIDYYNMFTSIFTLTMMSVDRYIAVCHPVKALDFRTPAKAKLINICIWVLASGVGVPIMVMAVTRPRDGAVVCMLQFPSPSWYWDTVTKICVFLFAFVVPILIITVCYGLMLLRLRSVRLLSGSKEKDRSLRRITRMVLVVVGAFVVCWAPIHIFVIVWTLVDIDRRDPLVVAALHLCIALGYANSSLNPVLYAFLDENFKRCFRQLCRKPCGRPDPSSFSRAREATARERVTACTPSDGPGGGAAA", "experiment": "SAR Analysis of Agonists of the DOR Receptor using an Image-Based Assay - Set 3. [Related pubchem assays (depositor defined):AID1777, AID1786]", "assay_type": "functional"}}, "note": "Calls of active or inactive are those of the source.", "data": [{"smiles": "CCOc1ccc(/C=C2/SC(=S)N(CCC(=O)Nc3ccc(C(=O)O)cc3)C2=O)cc1", "values": [{"measurement": "IC50", "setting": "[1]", "result": "> 50 µM (inactive)"}, {"measurement": "IC50", "setting": "[2]", "result": "5.5 µM (active)"}, {"measurement": "IC50", "setting": "[3]", "result": "23.6 µM (active)"}, {"measurement": "IC50", "setting": "[4]", "result": "16.8 µM (active)"}, {"measurement": "EC50", "setting": "[5]", "result": "> 80 µM (inactive)"}]}, {"smiles": "CC(=O)N(C)c1ccc(NC(=O)/C=C/c2ccccc2Cl)cc1", "values": [{"measurement": "AC50", "setting": "[6]", "result": "2.06 µM (active)"}, {"measurement": "AC50", "setting": "[7]", "result": "> 350 µM (inactive)"}]}, {"smiles": "O=C(NCc1ccco1)c1ccc([N+](=O)[O-])o1", "values": [{"measurement": "EC50", "setting": "[8]", "result": "0.128 µM (active)"}, {"measurement": "IC50", "setting": "[1]", "result": "34.6 µM (active)"}, {"measurement": "IC50", "setting": "[2]", "result": "4.6 µM (active)"}, {"measurement": "EC50", "setting": "[9]", "result": "> 60 µM (not active)"}, {"measurement": "IC50", "setting": "[10]", "result": "113 µM (inactive)"}, {"measurement": "IC50", "setting": "[11]", "result": "> 39.5 µM (inactive)"}, {"measurement": "CC50", "setting": "[12]", "result": "22.8 µM (active)"}]}, {"smiles": "CCOC(=O)Cn1c(=O)oc2cc(S(=O)(=O)Nc3ccc(F)cc3)ccc21", "values": [{"measurement": "EC50", "setting": "[13]", "result": "> 29.9 µM (not active)"}, {"measurement": "EC50", "setting": "[14]", "result": "> 29.9 µM (inactive)"}]}, {"smiles": "FC(F)(F)c1ccc(CSc2nnc(-c3ccccn3)n2Cc2ccco2)cc1", "values": [{"measurement": "EC50", "setting": "[15]", "result": "1.22 µM (active)"}, {"measurement": "EC50", "setting": "[16]", "result": "2.77 µM (active)"}, {"measurement": "EC50", "setting": "[17]", "result": "> 32 µM (inactive)"}, {"measurement": "EC50", "setting": "[18]", "result": "> 64 µM (inactive)"}]}]}
